Structures can show the parent of a compound that is named as a salt.

The melting point is the temperature of the solid-liquid transition.

The molecule `CN1CCC(Oc2ccc3ccccc3c2)c2ccc(-c3cccnn3)cc2C1` (centres unmarked) (as salt: tartrate) [Example 1, 2-methyl-5-(naphthalen-2-yloxy)-8-(pyridazin-3-yl)-2,3,4,5-tetrahydro-1H-benzo[c]azepine] came in with a melting point of 122 to 124 °C.

Consider `CN1CCC(Oc2ccc(Cl)cc2)c2ccc(-c3cccnn3)cc2C1` (centres unmarked) (as salt: tartrate) [Example 2, 5-(4-chlorophenoxy)-2-methyl-8-(pyridazin-3-yl)-2,3,4,5-tetrahydro-1H-benzo[c]azepine], for which the melting point was in the range of 106 to 108 °C.

The molecule `Cc1ccc(OC2CCN(C)Cc3cc(-c4cccnn4)ccc32)cc1` (centres unmarked) (as salt: tartrate) [Example 3, 2-methyl-8-(pyridazin-3-yl)-5-(p-tolyloxy)-2,3,4,5-tetrahydro-1H-benzo[c]azepine] displayed a melting point of 104 to 106 °C.

`CN1CCC(Oc2ccc(OC(F)(F)F)cc2)c2ccc(-c3cccnn3)cc2C1` (centres unmarked) (as salt: tartrate) [Example 4, 2-methyl-8-(pyridazin-3-yl)-5-(4-(trifluoromethoxy)phenoxy)-2,3,4,5-tetrahydro-1H-benzo[c]azepine] yielded a melting point of 104 to 106 °C.

The molecule `CN1CCC(Oc2cc(F)cc(F)c2)c2ccc(-c3cccnn3)cc2C1` (centres unmarked) (as salt: tartrate) [Example 5, 5-(3,5-difluorophenoxy)-2-methyl-8-(pyridazin-3-yl)-2,3,4,5-tetrahydro-1H-benzo[c]azepine] gave a melting point of 94 to 96 °C.

For the molecule `CN1CCC(Oc2ccc(C#N)cc2)c2ccc(-c3cccnn3)cc2C1` (centres unmarked) (as salt: tartrate) [Example 6, 4-(2-Methyl-8-(pyridazin-3-yl)-2,3,4,5-tetrahydro-1H-benzo[c]azepin-5-yloxy)benzonitrile], the melting point fell in the range of 94 to 96 °C.

For the molecule `CN1CCC(Oc2ccc(Cl)c(Cl)c2)c2ccc(-c3cccnn3)cc2C1` (centres unmarked) (as salt: tartrate) [Example 7, 5-(3,4-Dichlorophenoxy)-2-methyl-8-(pyridazin-3-yl)-2,3,4,5-tetrahydro-1H-benzo[c]azepine], the melting point is 102 to 104 °C.

`CN1CCC(Oc2ccc(F)c(F)c2)c2ccc(-c3cccnn3)cc2C1` (centres unmarked) (as salt: tartrate) [Example 8, 5-(3,4-Difluorophenoxy)-2-methyl-8-(pyridazin-3-yl)-2,3,4,5-tetrahydro-1H-benzo[c]azepine] displayed a melting point of 100 to 102 °C.

The molecule `CN1CCC(Oc2ccc(F)cc2F)c2ccc(-c3cccnn3)cc2C1` (centres unmarked) (as salt: tartrate) [Example 9, 5-(2,4-Difluorophenoxy)-2-methyl-8-(pyridazin-3-yl)-2,3,4,5-tetrahydro-1H-benzo[c]azepine] registered a melting point of 98 to 100 °C.

In the case of `CN1CCC(Oc2ccccc2)c2ccc(-c3cccnn3)cc2C1` (centres unmarked) (as salt: tartrate) [Example 10, 2-methyl-5-phenoxy-8-(pyridazin-3-yl)-2,3,4,5-tetrahydro-1H-benzo[c]azepine], the melting point lay in the range of 98 to 100 °C.

In turn, `CN1CCC(Oc2cccnc2)c2ccc(-c3cccnn3)cc2C1` (centres unmarked) (as salt: tartrate) [Example 11, 2-methyl-8-(pyridazin-3-yl)-5-(pyridin-3-yloxy)-2,3,4,5-tetrahydro-1H-benzo[c]azepine] showed a melting point of 120 to 123 °C.

`CN1CCC(Oc2ccccc2F)c2ccc(-c3cccnn3)cc2C1` (centres unmarked) (as salt: tartrate) [Example 12, 5-(2-fluorophenoxy)-2-methyl-8-(pyridazin-3-yl)-2,3,4,5-tetrahydro-1H-benzo[c]azepine]: the melting point lay in the range of 96 to 98 °C.

On to `CN1CCC(Oc2cccc(F)c2)c2ccc(-c3cccnn3)cc2C1` (centres unmarked) (as salt: tartrate) [Example 13, 5-(3-fluorophenoxy)-2-methyl-8-(pyridazin-3-yl)-2,3,4,5-tetrahydro-1H-benzo[c]azepine], for which the melting point lay in the range of 96 to 98 °C.

With `CN1CCC(Oc2cc(F)cc(F)c2)c2ccc(-c3cccnn3)cc2C1` (centres unmarked) (as salt: tartrate) [Example 14, 5-(3,5-difluorophenoxy)-2-methyl-8-(pyridazin-3-yl)-2,3,4,5-tetrahydro-1H-benzo[c]azepine], the melting point lay in the range of 120 to 122 °C.

`CN1CCC(Oc2cccc3ccccc23)c2ccc(-c3cccnn3)cc2C1` (centres unmarked) (as salt: tartrate) [Example 15, 2-Methyl-5-(naphthalen-1-yloxy)-8-(pyridazin-3-yl)-2,3,4,5-tetrahydro-1H-benzo[c]azepine] came in with a melting point of 100 to 102 °C.

For the molecule `CN1CCC(Oc2ccc3ccccc3c2)c2ccc(-c3cccnn3)cc2C1` (centres unmarked) (as salt: tartrate) [Example 18, 5-(naphthalen-2-yloxy)-2-methyl-8-(pyridazin-3-yl)-2,3,4,5-tetrahydro-1H-benzo[c]azepine], the melting point lay in the range of 120 to 122 °C.

In the case of `Cc1ccc(-c2ccc3c(c2)CNCCC3Oc2ccccc2)nn1` (centres unmarked) (as salt: tartrate) [Example 32, 8-(6-methylpyridazin-3-yl)-5-phenoxy-2,3,4,5-tetrahydro-1H-benzo[c]azepine], the melting point is 115 to 118 °C.

The molecule `CN1CCC(Oc2ccc3cccnc3c2)c2ccc(-c3cccnn3)cc2C1` (centres unmarked) (as salt: tartrate) [Example 33, 2-methyl-8-(pyridazin-3-yl)-5-(quinolin-7-yloxy)-2,3,4,5-tetrahydro-1H-benzo[c]azepine] showed a melting point of 120 to 122 °C.

Molecule `CN1CCC(Oc2ccccc2Cl)c2ccc(-c3cccnn3)cc2C1` (centres unmarked) (as salt: tartrate) [Example 34, 5-(2-chlorophenoxy)-2-methyl-8-(pyridazin-3-yl)-2,3,4,5-tetrahydro-1H-benzo[c]azepine] registered a melting point of 100 to 102 °C.

With `CN1CCC(Oc2ccccc2Cl)c2ccc(-c3cccnn3)cc2C1` (centres unmarked) (as salt: tartrate) [Example 35, 5-(2-chlorophenoxy)-2-methyl-8-(pyridazin-3-yl)-2,3,4,5-tetrahydro-1H-benzo[c]azepine], the melting point was 104 to 106 °C.

For `CN1CCC(Oc2ccccc2)c2ccc(-c3ncccn3)cc2C1` (centres unmarked) (as salt: tartrate) [Example 49, 2-Methyl-5-phenoxy-8-(pyrimidin-2-yl)-2,3,4,5-tetrahydro-1H-benzo[c]azepine], the melting point was 108 to 110 °C.

`CN1CCC(Oc2cccc(F)c2F)c2ccc(-c3cccnn3)cc2C1` (centres unmarked) (as salt: tartrate) [Example 51, 5-(2,3-difluorophenoxy)-2-methyl-8-(pyridazin-3-yl)-2,3,4,5-tetrahydro-1H-benzo[c]azepine] returned a melting point of 112 to 114 °C.

In turn, `CN1CCC(Oc2cccc(C#N)c2)c2ccc(-c3cccnn3)cc2C1` (centres unmarked) (as salt: tartrate) [Example 52, 5-(3-cyanophenoxy)-2-methyl-8-(pyridazin-3-yl)-2,3,4,5-tetrahydro-1H-benzo[c]azepine] came in with a melting point of 113 to 115 °C.

`CN1CCC(Oc2ccc(C#N)cc2)c2ccc(-c3cccnn3)cc2C1` (centres unmarked) (as salt: tartrate) [Example 53, 5-(4-cyanophenoxy)-2-methyl-8-(pyridazin-3-yl)-2,3,4,5-tetrahydro-1H-benzo[c]azepine] displayed a melting point of 110 to 112 °C.

Molecule `CN1CCC(Oc2cc(F)ccc2F)c2ccc(-c3cccnn3)cc2C1` (centres unmarked) (as salt: tartrate) [Example 54, 5-(2,5-difluorophenoxy)-2-methyl-8-(pyridazin-3-yl)-2,3,4,5-tetrahydro-1H-benzo[c]azepine] displayed a melting point of 102 to 104 °C.

`CN1CCC(Oc2c(F)cccc2F)c2ccc(-c3cccnn3)cc2C1` (centres unmarked) (as salt: tartrate) [Example 55, 5-(2,6-difluorophenoxy)-2-methyl-8-(pyridazin-3-yl)-2,3,4,5-tetrahydro-1H-benzo[c]azepine] yielded a melting point of 98 to 100 °C.

For the origin of these results see US8987252B2, “Aryloxy- and heteroaryloxy-substituted tetrahydrobenzazepines and use thereof to block reuptake of norepinephrine, dopamine, and serotonin” (Albany Molecular Research, Inc., priority 2007, dated 2015).
